Where a SMILES comes first, the peptide text is derived from it.
Key:
rats = details: MI rat model; hypertension-induced cardiac dysfunction rat model; cited from earlier work
Description: Another avenue being investigated is the use of small molecule as agonists for the apelinR, such as, Bristol Myers Squibb's BMS-986224,[26,27] Amgen's AMG986,[28] and Davenport's CMF-019.[29] […] In contrast, the two non peptidic apelinR agonists, BMS-98622 ...

apelinR / human Gαi2 = target: T1, apelinR / human Gαi2 (Homo sapiens, UniProt P35414); test: ebBRET Gαi2 activation; assay type: cell-based; details: HEK293 cells transfected with apelinR, human Gαi2, Rap1GAP-RlucII, rGFP-CAAX; 10 min at 37 °C; mean ± SEM of 5 to 6 independent experiments; read-out: Gαi2 activation log EC50 (converted)
T1 sequence (P35414 1-380): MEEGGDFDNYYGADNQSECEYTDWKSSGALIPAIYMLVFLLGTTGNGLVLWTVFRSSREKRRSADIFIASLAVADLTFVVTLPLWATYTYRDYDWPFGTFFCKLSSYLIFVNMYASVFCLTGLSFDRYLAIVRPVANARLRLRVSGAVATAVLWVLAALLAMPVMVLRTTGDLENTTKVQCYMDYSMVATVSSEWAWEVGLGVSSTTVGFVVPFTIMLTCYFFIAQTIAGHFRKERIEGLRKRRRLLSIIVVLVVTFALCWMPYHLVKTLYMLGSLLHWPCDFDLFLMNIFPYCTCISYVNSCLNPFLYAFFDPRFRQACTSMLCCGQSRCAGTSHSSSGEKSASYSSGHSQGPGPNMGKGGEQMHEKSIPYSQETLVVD

apelinR / human Gαi1 = target: T2, apelinR / human Gαi1 (Homo sapiens, UniProt P35414); test: ebBRET Gαi1 activation; assay type: cell-based; details: HEK293 cells transfected with apelinR, human Gαi1, Rap1GAP-RlucII, rGFP-CAAX; 10 min at 37 °C; mean ± SEM of 5 to 6 independent experiments; read-out: Gαi1 activation log EC50 (converted)
T2 sequence (P35414 1-380): T1 sequence (P35414 1-380)

Row | Compound | change in BP in a myocardial infarction (MI) rat model and a hypertension-induced cardiac dysfunction rat model (in words) (rats) | EC50 (apelinR / human Gαi2) [nM] | EC50 (apelinR / human Gαi1) [nM]
1 | COc1cccc(OC)c1-n1c(NS(=O)(=O)[C@@H](C)[C@@H](OC(C)C)c2ncc(C)cn2)nnc1-c1cncc(C)c1 [AM-812337] | do not induce any change in BP | – | –
2 | CSCC[C@H](NC(=O)[C@@H]1CCCN1C(=O)CNC(=O)[C@H](CCCCN)NC(=O)[C@H](Cc1c[nH]cn1)NC(=O)[C@@H](N)CO)C(=O)N1CCC[C@H]1C(=O)N[C@@H](Cc1ccccc1)C(=O)O [apelin 8-mer C-terminal] (H-SHKGPMPF-OH) | – | 347 | 490
3 | CSCC[C@H](NC(=O)[C@@H]1CCCN1C(=O)CN)C(=O)N1CCC[C@H]1C(=O)N[C@@H](Cc1ccccc1)C(=O)O [apelin-5-mer C-terminal] (H-GPMPF-OH) | – | 1150 | 1070

Source: paper PMC12715805, “Screening apelin analogues and a small molecule agonist as effective cardiovascular therapeutics against reperfusion injury” (RSC Medicinal Chemistry, 2025)
